Experimental findings from patent US12668599B2, “Heterobifunctional compounds and methods of treating disease” (Halda Therapeutics OpCo, Inc., priority 2023, dated 2026) are described below.

The term GI50 denotes the concentration giving 50% growth inhibition.

For one experiment, the system named is T47D cells. As to the kind of experiment: Cellular growth inhibition assay for T47D cells (CellTiter-Glo 2.0, 72 hours). In kind it is cell-based, human. The following applies: Homo sapiens, T47D, 72 h. Here is the method: Exemplary compounds were tested for ability to inhibit the proliferation of T47D cells. T47D cells are a commercially available human breast cancer cell line.
T47D cells were purchased from American Type Cell Culture (ATCC Cat #HTB-133) and then seeded on poly-D-lysine coated, black clear-bottom 384-well plates at 3000/well in 25 μL Dulbecco's Modified Eagle Medium (DMEM) supplemented with 10% w/w Fetal bovine serum (FBS), 0.2 units/mL recombinant human insulin (Gibco Cat #12585014), and 1% w/w Pen-Strep. Pen-Strep is a commercially available mixture of penicillin G and streptomycin, which is used in mammalian cell culture media to prevent bacterial contamination. Dulbecco's Modified Eagle Medium (DMEM) supplemented with 10% w/w fetal bovine serum (FBS), 0.2 units/mL recombinant human insulin, and 1% w/w Pen-Strep is herein referred to as Treatment Medium. Following seeding of cells in the plates, the plates were spun at 300×g for 30 seconds, then equilibrated to room temperature for 30 minutes, and then deposited in a humidified tissue culture incubator maintained at 37° C. with 5% CO2.
At 24 hours after seeding of the cells, dilutions of test compound were prepared in DMSO and dissolved in Treatment Medium, to achieve a final DMSO concentration of 0.5% w/w, thereby providing the Test Compound Solution. A 25 μL aliquot of the Test Compound Solution was added to cells in the well plates. An equal volume of a solution containing DMSO and Treatment Medium was used as a negative control. Following treatment of cells with Test Compound Solution or said equal volume of a solution containing DMSO and Treatment Medium, the plates were spun at 300×g for 30 seconds, and then left in an incubator for 72 hours.
At the end of the treatment duration, cell viability was quantified with CellTiter-Glo 2.0 reagent (Promega Cat #G9243). For this purpose, plates were equilibrated to room temperature for 30 minutes, and then 25 μL of CellTiter-Glo 2.0 reagent was added to cells in the plate wells. Plates were then agitated on a shaker for two minutes at 500 rpm and subsequently incubated at room temperature for 10 minutes. Following incubation, the plates were spun at 3000×g for 30 seconds, then sealed with an optical adhesive cover, and luminescence readings were measured with an En Vision Plate Reader (Perkin Elmer).
Data was normalized using zero luminescence for baseline. A four-parameter non-linear regression curve fit was applied to dose-response data in GraphPad Prism data analysis software to determine the half-maximal growth inhibitory concentration (GI50) for each test compound.
(In general: ATP-based viability assays read luminescence as a measure of living cells.)

In experiment [1] the test system is T-Rex 293 cell line SC3 cells lacking increased expression of androgen receptor protein. The experiment can be described thus: Cellular growth inhibition, T-Rex 293 SC3 cells without doxycycline (CellTiter-Glo 2.0, 72 hours). In kind it is cell-based. Conditions: 72 h, T-Rex 293 SC3 cells not exposed to doxycycline (no increased androgen receptor expression).
Experiment [2] deals with T1, androgen receptor and BRD4 protein (Homo sapiens, UniProt O60885+P10275).
T1 construct: Tumors obtained from the Castrate VCaP Model were lysed; from tissue; host or cells: VCaP tumour xenografts grown in castrated CB17.SCID mice
As to the kind of experiment: Tumor TR-FRET trimer assay on tumors of the PK/PD Castrate VCaP model. The following applies: PK/PD Castrate VCaP Tumor Xenograft Model. The format is in vivo, CB17.SCID mice. On the procedure: 5M VCaP cells were subcutaneously implanted into CB17.SCID mice in 50% Matrigel (Corning). Mice were castrated under anesthesia once tumor volumes reached 100 mm^3. Tumors were then allowed to reach an average of approximately 150 mm^3 before randomization into efficacy arms. Tumors were measured twice weekly for Tumor Growth Inhibition (TGI) calculation. For PK/PD analysis, tumors were allowed to reach an average of 400 mm^3, before dosing the mice with test compound by oral gavage (n=5) for seven days. Mice were sacrificed 24 hours following the final dose, and tumors were harvested for downstream analysis. Plasma samples were collected from all dosed mice 2 hours following the final dose to determine test compound exposure by LC-MS/MS. […] the United States Food and Drug Administration for treatment of prostate cancer ([…]).
Tumors obtained from the Castrate VCaP Model were lysed in Cell Signaling Technology lysis buffer supplemented with protease/phosphatase inhibitors and nuclease. Each tumor was lysed in 10 μL of lysis buffer per mg of tumor and placed in a TissueLyser for 4 minutes at 20 Hz. Each sample was spun down at 16000×g for 10 minutes, the supernatant was removed, and a BCA assay was run to quantify the total protein concentration in each sample. In a white opaque 384 well plate each sample was diluted in supplemented CST lysis buffer to 48 and 24 μg of protein in a total volume of 16 μL. 4 μL of a 1:1 mixture of anti-androgen receptor and anti-BRD4 antibodies with donor and acceptor fluorophores were mixed into each well containing tumor samples. The plate was spun down at 300×g for one minute, placed on a plate shaker at 400 RPM for 10 minutes, spun down at 300×g for one minute, then sealed with a plate seal and stored overnight. Approximately 16 hours after adding antibodies, the plate was read on an Envision plate reader. The ratiometric value of each well was calculated by dividing the acceptor signal by the donor signal and multiplying by 10,000.
(In TR-FRET formats the signal depends on donor and acceptor labels being close together.)

T1 sequence (P10275 whole entry, other chains not shown): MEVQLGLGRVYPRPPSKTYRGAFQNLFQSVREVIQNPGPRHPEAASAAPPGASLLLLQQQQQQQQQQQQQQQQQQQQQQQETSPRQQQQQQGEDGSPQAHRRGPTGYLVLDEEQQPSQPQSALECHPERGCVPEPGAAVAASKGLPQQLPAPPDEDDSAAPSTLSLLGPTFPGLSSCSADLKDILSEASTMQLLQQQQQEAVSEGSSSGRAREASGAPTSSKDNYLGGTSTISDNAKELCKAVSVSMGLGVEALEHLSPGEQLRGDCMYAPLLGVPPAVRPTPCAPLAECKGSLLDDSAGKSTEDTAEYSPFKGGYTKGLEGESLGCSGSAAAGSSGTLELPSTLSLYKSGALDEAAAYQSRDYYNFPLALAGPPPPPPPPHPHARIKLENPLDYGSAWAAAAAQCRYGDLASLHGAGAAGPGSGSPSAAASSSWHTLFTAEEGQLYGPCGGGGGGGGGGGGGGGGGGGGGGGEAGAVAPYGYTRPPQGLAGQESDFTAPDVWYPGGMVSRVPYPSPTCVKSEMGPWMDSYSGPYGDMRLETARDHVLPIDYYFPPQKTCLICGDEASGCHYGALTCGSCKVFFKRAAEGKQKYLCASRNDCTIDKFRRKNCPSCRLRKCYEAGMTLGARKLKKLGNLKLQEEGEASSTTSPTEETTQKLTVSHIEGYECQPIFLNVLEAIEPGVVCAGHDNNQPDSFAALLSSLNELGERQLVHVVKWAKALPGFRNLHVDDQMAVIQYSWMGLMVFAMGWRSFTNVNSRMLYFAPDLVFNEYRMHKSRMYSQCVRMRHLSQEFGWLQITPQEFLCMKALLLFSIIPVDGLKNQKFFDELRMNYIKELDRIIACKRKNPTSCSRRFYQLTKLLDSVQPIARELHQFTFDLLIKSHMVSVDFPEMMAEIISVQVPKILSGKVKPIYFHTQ

Turning to `COc1cc(O[C@H]2C(C)(C)[C@H](NC(=O)c3cnc(N4CCC5(CC4)CC(Oc4ccc(C6=N[C@@H](Cc7ncco7)c7nnc(C)n7-c7sc(C)c(C)c76)cc4)C5)nc3)C2(C)C)ccc1C#N` [II-5, N-[(1r,3r)-3-(4-cyano-3-methoxy-phenoxy)-2,2,4,4-tetramethyl-cyclobutyl]-2-[2-[4-[(9S)-4,5,13-trimethyl-9-(oxazol-2-ylmethyl)-3-thia-1,8,11,12-tetrazatricyclo[8.3.0.0^2,6]trideca-2 (6),4,7,10,12-pentaen-7-yl]phenoxy]-7-azaspiro[3.5]nonan-7-yl]pyrimidine-5-carboxamide], the 50% growth inhibitory concentration (GI50) (in the experiment on T47D cells; in experiment [1]) was under 500 nM throughout. Besides, the “ternary complex formation between compound, androgen receptor, and BRD4 protein in tumors” value in experiment [2] (oral gavage for seven days, varying doses, FIG. 4) is “observed”; in experiment [2] (Compound II-5 and Compound B at the same dose and dosing frequency, FIG. 20), “observed”.
